The test system of test [1] is mononuclear phagocytes. The test is described as follows: ApoA-I mediated cellular cholesterol efflux (14C-cholesterol, E-LDL loaded monocytes). Type of test: cell-based, Human. The note with it: men and women, percent of basal unstimulated efflux. As to the method: Cellular Lipid Efflux. Human peripheral blood cells were isolated from lithium-heparin treated blood samples of adult, healthy volunteers. The peripheral blood mononuclear cell fraction was separated by density gradient centrifugation over Ficoll-Histopaque […] (Sigma). Cells positive for CD2, CD7, CD16, CD19 and CD56 were removed by appropriate magnetic beads (Dynal) leaving > 80% pure monocytes. Isolated monocytes were then cultured at a density of 1.5x10^5 cells/mL in polystyrene culture dishes (100x15mm Petri dish, Falcon) in a serum-free macrophage medium (Macrophage-SFM, Gibco Life Technologies) supplemented with 50ng/mL human recombinant M-CSF (R&D Systems). After an overnight incubation cells were cholesterol loaded for 24 hrs by addition of enzymatically modified LDL (E-LDL; 40 µg/ml), which was prepared as previously described (31). […] Lipids were extracted by liquid extraction according to the method of Bligh and Dyer (13). ^3H and ^14C radioactivities of the total lipid extracts were measured by liquid scintillation counting in order to distinguish between ^3H labeled phospholipids and ^14C-cholesterol. Lipid efflux was calculated as percentage of disintegrations per minute (dpm) in medium divided by the sum of dpm recovered from medium and cells. […]

Test [2] deals with mononuclear phagocytes. The test is described as follows: ApoA-I mediated cellular phospholipid efflux (3H-choline labelled phospholipids). Type of test: cell-based, Human. As to conditions: men and women, percent of basal unstimulated efflux. As to the method: Cellular Lipid Efflux. Human peripheral blood cells were isolated from lithium-heparin treated blood samples of adult, healthy volunteers. The peripheral blood mononuclear cell fraction was separated by density gradient centrifugation over Ficoll-Histopaque […] (Sigma). Cells positive for CD2, CD7, CD16, CD19 and CD56 were removed by appropriate magnetic beads (Dynal) leaving > 80% pure monocytes. Isolated monocytes were then cultured at a density of 1.5x10^5 cells/mL in polystyrene culture dishes (100x15mm Petri dish, Falcon) in a serum-free macrophage medium (Macrophage-SFM, Gibco Life Technologies) supplemented with 50ng/mL human recombinant M-CSF (R&D Systems). After an overnight incubation cells were cholesterol loaded for 24 hrs by addition of enzymatically modified LDL (E-LDL; 40 µg/ml), which was prepared as previously described (31). The incubation medium was further supplemented with ^14C-cholesterol (1.5 µCi/ml) and ^3H-choline (10µCi/ml) in order to label cellular cholesterol and choline containing phospholipids. In a subset of experiments cells were stimulated with 10 µM forskolin during the labeling period. After 24 hrs monocytes were washed and incubated for 17 hrs with or without 10 µg/ml ApoA-I (Sigma) in macrophage medium containing 0.1 % bovine serum albumin and 50ng/mL M-CSF. After incubation the media were removed and centrifuged at 800 x g to precipitate any detached cells. Cells were lysed in 0.2% SDS. Lipids were extracted by liquid extraction according to the method of Bligh and Dyer (13). ^3H and ^14C radioactivities of the total lipid extracts were measured by liquid scintillation counting in order to distinguish between ^3H labeled phospholipids and ^14C-cholesterol. Lipid efflux was calculated as percentage of disintegrations per minute (dpm) in medium divided by the sum of dpm recovered from medium and cells. The ApoA-I specific efflux is expressed a percent of basal unstimulated efflux observed in serum-free macrophage medium without ApoA-I.

The subject of the next test is IL-1β secretion. The test is described as follows: IL-1β processing and secretion. Type of test: cell-based. The note with it: result in words.
The next test deals with neutral sphingomyelinase. The test is described as follows: Ceramide formation from sphingomyelin. The note with it: result in words. Type of test: cell-based.
A further test deals with human fibroblasts. The test is described as follows: Cell cycle arrest in fibroblasts. Type of test: cell-based. The note with it: result in words.

Regarding `C=C[C@@]1(C)CC(=O)[C@]2(O)[C@@]3(C)[C@@H](O)CCC(C)(C)[C@@H]3[C@H](O)[C@H](OC(C)=O)[C@@]2(C)O1` [forskolin], the “Cholesterol efflux: ApoA-I [10 µg/ml]+ 24 h pretreatment with forskolin [10 µM]” value in the test on mononuclear phagocytes [1] (596A/A) stood at 126.7 ± 37.4%; in the test on mononuclear phagocytes [1] (wt/wt 596G/G, 2589A/A) it was 121.8 ± 16.4%. Further, the “Phospholipid efflux: ApoA-I [10 µg/ml]+ 24 h pretreatment with forskolin [10 µM]” value was 136.7 ± 12.8% in the test on mononuclear phagocytes [2] (596A/A); 124.5 ± 25.8% in the test with mononuclear phagocytes [2] (2589G/G); 135.4 ± 20.2% in the test with mononuclear phagocytes [2] (wt/wt 596G/G, 2589A/A).

For the compound `COc1ccc(Cl)cc1C(=O)NCCc1ccc(S(=O)(=O)NC(=O)NC2CCCCC2)cc1` [glyburide], in the test with IL-1β secretion, the “Caspase I mediated processing of pro-IL-1β” value is “inhibits” and the “release of mature IL-1β” value was “inhibits”. The “ceramide formation from sphingomyelin mediated by neutral sphingomyelinase” value with neutral sphingomyelinase is given as “inhibits”. For the same compound, the “G2-phase cell cycle arrest” value with human fibroblasts is listed as “releases human fibroblasts from G2-phase cell cycle arrest”.

(Values after EP1136554A1, “ATP binding cassette transporter 1 (ABC1) gene polymorphisms and uses thereof for the diagnosis and treatment of lipid disorders, cardiovascular diseases and inflammatory diseases” (Bayer Aktiengesellschaft, priority 2000, dated 2001).)
